Earlier results, collected in patent US20130090323A1, “HETEROCYCLIC COMPOUNDS AND THEIR USES” (Amgen Inc., priority 2010, published 2013).

Assays:
murine model of asthma = settings: mouse, in vivo
p110δ = target: T1, p110δ (Homo sapiens, UniProt O00329)
T1 sequence (O00329 1-1044): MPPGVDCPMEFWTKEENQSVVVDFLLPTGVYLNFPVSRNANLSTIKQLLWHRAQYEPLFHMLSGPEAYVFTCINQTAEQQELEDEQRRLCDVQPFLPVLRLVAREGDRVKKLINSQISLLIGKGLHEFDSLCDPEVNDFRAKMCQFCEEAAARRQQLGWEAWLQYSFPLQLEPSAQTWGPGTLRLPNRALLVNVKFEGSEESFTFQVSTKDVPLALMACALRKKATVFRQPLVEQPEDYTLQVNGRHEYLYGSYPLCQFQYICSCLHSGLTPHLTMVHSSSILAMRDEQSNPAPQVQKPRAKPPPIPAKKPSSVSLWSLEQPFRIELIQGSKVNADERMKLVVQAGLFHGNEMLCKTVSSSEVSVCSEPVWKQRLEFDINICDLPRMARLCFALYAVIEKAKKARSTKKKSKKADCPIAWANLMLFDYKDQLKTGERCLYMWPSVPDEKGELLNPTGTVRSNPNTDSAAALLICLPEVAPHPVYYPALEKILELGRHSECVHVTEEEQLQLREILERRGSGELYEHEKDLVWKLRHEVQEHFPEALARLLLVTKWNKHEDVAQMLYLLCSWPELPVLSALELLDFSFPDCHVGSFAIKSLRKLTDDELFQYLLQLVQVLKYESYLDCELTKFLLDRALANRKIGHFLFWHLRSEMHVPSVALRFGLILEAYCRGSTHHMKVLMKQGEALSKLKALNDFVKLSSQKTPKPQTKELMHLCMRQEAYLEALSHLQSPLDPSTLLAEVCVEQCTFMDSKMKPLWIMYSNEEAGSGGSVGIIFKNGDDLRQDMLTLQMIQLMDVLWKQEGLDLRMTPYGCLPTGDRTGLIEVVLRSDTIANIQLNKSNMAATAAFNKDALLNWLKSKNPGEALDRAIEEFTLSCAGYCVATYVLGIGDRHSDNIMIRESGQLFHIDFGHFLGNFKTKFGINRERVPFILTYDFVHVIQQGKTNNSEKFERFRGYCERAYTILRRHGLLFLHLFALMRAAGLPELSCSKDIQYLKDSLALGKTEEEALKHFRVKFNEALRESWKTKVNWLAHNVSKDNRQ

[1] = test system: murine model of allergic disease; settings: absence of functional delta (compound and p110δ D910A mice)
[2] = test system: mouse model of rheumatoid arthritis; settings: in vivo
[3] = test system: model of systemic lupus erythematosis; settings: in vivo

Row | Structure (SMILES) | inflammation and disease in ovalbumin-induced airway inflammation (murine model of asthma) | activity against any protein kinases tested (protein kinases) | inhibition of p110δ (p110δ) | passive cutaneous anaphylaxis (PCA) [1] | efficacy in a mouse model of rheumatoid arthritis [2] | onset of disease in a model of systemic lupus erythematosis [3]
1 | Cc1ccccc1-n1c(Cn2cnc3c(N)ncnc32)nc2cccc(C)c2c1=O [IC87114] | significantly ameliorate inflammation and disease | no activity | high nanomolar range (triple digit) | significantly reduced | – | –
2 | O=C1NC(=O)/C(=C\c2ccc3nccnc3c2)S1 [AS 605240] | – | – | – | – | efficacious | delay onset of disease
